Experimental data taken from US5434136A, “Treatment of motility disorders with a GNRH analog” (priority 1992, dated 1995).

What was measured:
[1] = system: functional bowel disease (GMD, IIHVN, Roux-en-Y Syndrome); assay: Treatment of five patients with leuprolide acetate: symptoms; assay type: in vivo, human
Description: Patients: Four of the five patients tested were women with functional bowel disease: two with gastrointestinal motor dysfunction (GMD), and two with idiopathic intestinal hollow visceral myopathy/neuropathy (IIHVN). The fifth patient had Roux-en-Y Syndrome. All patients had severe, incapacitating symptoms of abdominal pain, nausea, and intermittent vomiting. All had made frequent visits to emergency rooms, had seen many physicians, and undergone multiple tests and surgical procedures, and were unable to maintain their jobs or quality of life. They had been treated with many different drugs, including experimental drugs by protocol. They had difficulty in maintaining body weight, because their symptoms were worsened by eating. The symptoms of the two patients with GMD were abdominal pain located in the right upper quadrant and epigastrium, daily nausea, and intermittent vomiting exacerbated by eating and by the luteal phase of the menstrual cycle. The two patients with IIHVN had abdominal pain, nausea, and intermittent vomiting, and also had urinary tract involvement consisting of pain and a decrease in urination. The fifth patient had Roux-en-Y syndrome (defined as epigastric-to-right-upper-quadrant pain, nausea, and vomiting increased by eating) after surgical construction of a gastro-jejunal Roux-en-Y anastomosis. The mean duration of these symptoms was eight years (Table 1). All subjects had undergone extensive blood testing, several upper gastrointestinal x-ray series, barium enemas, esophagogastroduodenoscopy, endoscopic retrograde cholangiopancreatography, gastric emptying tests with radiolabeled meal, ultrasound of the abdomen, computerized axial tomography of the abdomen, and many other tests. The results of all tests were normal, except for prolonged gastric emptying in the patient with the Roux-en-Y Syndrome. Because of their intractable clinical problem, these patients were included in the test protocol with leuprolide acetate. Protocol: The symptoms of each patient were first assessed, and their tests evaluated. Each patient kept a daily symptom diary. Leuprolide acetate was obtained by prescription as Lupron (TAP pharmaceuticals, Abbott Labs, North Chicago, Ill.). One multi-use vial of Lupron comprised of […] Leuprolide Acetate. A daily dose of 0.5 mg ([…]) was self-administered by subcutaneous injection, for a period of three months. Each patient was examined at 0, 1 and 3 months of treatment. After the third month, leuprolide was continued as previously, and estrogen (0.625 mg orally) and calcium (1000 mg orally) were also administered. At the end of the sixth month, a two week withdrawal period from leuprolide acetate ensued. During this period a 10 mg oral dose of progesterone was given to pre-menopausal patients, to assess recurrence of symptoms and to induce menses. Post-menopausal women were not treated with progesterone during the two week withdrawal period. This procedure was then continued for an additional six months, with drug withdrawal and progesterone given every three months to induce a menstrual cycle. Serum estradiol, progesterone, FSH, and LH were quantitated by radioimmunoassay prior to the initiation of leuprolide treatment, and at three months post treatment initiation.

[2] = system: motility of stomach and small intestine; assay: Motility recordings (duodenal jejunal manometry) and hydrogen breath test in SLE patients; assay type: in vivo, human
Experimental: Motility recordings of the stomach and small intestine were performed with a ultraminiature force-transducer probe (Millar Instruments, Houston, Tex.). Pressure readings from the probe were recorded on an R612 physiologic recorder fitted with Model 9872 couplers (SenorMedics, Yorba Linda, Calif.). After the probe was passed transnasally and placed fluoroscopically, a 12 hour recording of the patient was made with the patient in the fasted state. They then drank a 240-ml liquid meal (ENSURE), and the recording was continued for three hours to evaluate conversion from the fasting pattern to fed-state motor activity. During the fasting state, this patient had three poorly formed and disorganized migrating motor complexes, whereas the normal range expected is 6-8, or a mean of 7.4 in the 12 hour recording period. […] The patient was diagnosed as having chronic intestinal pseudo-obstruction associated with sero-negative SLE.

[3] = Patient 4 (IIHVN), 0.5 mg daily s.c.
[4] = Patient 5 (Roux-en-Y), 0.5 mg daily s.c.

CCNC(=O)[C@@H]1CCCN1C(=O)[C@H](CCCNC(=N)N)NC(=O)[C@H](CC(C)C)NC(=O)[C@@H](CC(C)C)NC(=O)[C@H](Cc1ccc(O)cc1)NC(=O)[C@H](CO)NC(=O)[C@H](Cc1c[nH]c2ccccc12)NC(=O)[C@H](Cc1c[nH]cn1)NC(=O)[C@@H]1CCC(=O)N1 [Leuprolide acetate, leuprolide acetate]
Constipation: after leuprolide acetate ([1]; Patient 1, 0.5 mg daily s.c.): Daily formed stools
Intermittent vomiting: after leuprolide acetate ([1]; Patient 1, 0.5 mg daily s.c.): Abolished
Nausea, daily: after leuprolide acetate ([1]; Patient 1, 0.5 mg daily s.c.): Decreased considerably
Pain, RUQ, epigastrium, BLQ: after leuprolide acetate ([1]; Patient 1, 0.5 mg daily s.c.): Abolished
Constipation, intermittent: after leuprolide acetate ([1]; Patient 2, 0.5 mg daily s.c.): Daily formed stools
Epigastric to RUQ pain: after leuprolide acetate ([1]; Patient 2, 0.5 mg daily s.c.): Abolished
Nausea, daily: after leuprolide acetate ([1]; Patient 2, 0.5 mg daily s.c.): Abolished
Bilateral lower quadrant pain: after leuprolide acetate ([1]; Patient 3 (IIHVN)): Abolished
Bowel and bladder function after therapy ([1]; Patient 3 (IIHVN)): normal bowel and bladder function
Epigastric to RUQ pain: after leuprolide acetate ([1]; Patient 3 (IIHVN)): Decreased considerably
Nausea and vomiting after therapy ([1]; Patient 3 (IIHVN)): subsided
Nausea, daily: after leuprolide acetate ([1]; Patient 3 (IIHVN)): Abolished
Obstipation: after leuprolide acetate ([1]; Patient 3 (IIHVN)): Daily formed stools
Pain on urination: after leuprolide acetate ([1]; Patient 3 (IIHVN)): Abolished
Remaining abdominal pain under therapy ([1]; Patient 3 (IIHVN)): mild and intermittent abdominal pain
Overall response ([1]; Patient 3 (IIHVN), total abdominal hysterectomy and bilateral salpingo-oophorectomy): responded dramatically
Overall outcome ([1]; Patient 4 (IIHVN)): symptom-free
Constipation after ovulation: after leuprolide acetate [1, 3]: Daily formed stools
Deep boring pain in lower abdomen and rectum: after leuprolide acetate [1, 3]: Abolished
Urinary difficulty after ovulation: after leuprolide acetate [1, 3]: normal urination
Urination frequency after leuprolide acetate [1, 3]: 4 to 6 day⁻¹
Overall outcome ([1]; Patient 5 (Roux-en-Y)): symptom-free
Diarrhea: after leuprolide acetate [1, 4]: Daily formed stools
Epigastric to RUQ pain: after leuprolide acetate [1, 4]: Abolished
Intermittent vomiting: after leuprolide acetate [1, 4]: Abolished
Nausea, daily: after leuprolide acetate [1, 4]: Abolished
Worsened by eating: after leuprolide acetate [1, 4]: Abolished
Body weight gained ([1]; Patient 5 (Roux-en-Y), from 96 to 131 pounds): 35 pounds
Symptoms after leuprolide treatment was stopped and a progesterone challenge given ([1]; all subjects of Example 1, two week withdrawal): recurrent symptoms within three to five days
Debilitating symptoms of patients with Motility Disorders (conclusion of Example 1) ([1]; human, in vivo): successfully reduces or abolishes
Overall outcome after treatment ([1]; patients with GMD (Patients 1 and 2)): symptom-free
Motility pattern upon the liquid meal ([2]; SLE patient 4, after six months of therapy, failed to convert before): converted to the fed state
Cycling migrating motor complexes in the motility recording ([2]; SLE patient 4, after six months of therapy, virtually no motility before, normal range 6-8 per 12 hour): six
Migrating motor complexes per 12 hour recording session ([2]; SLE patient 5, 1.75 mg daily s.c., after six months, absence of motility before): Ten
Motility pattern after intake of the liquid meal ([2]; SLE patient 5, after six months of therapy, failed to convert before): converted to the fed state pattern
Hydrogen breath test (oral to cecal transit time) ([2]; SLE patient 5, after six months of therapy, markedly prolonged before): unchanged
